Columns and labels:
KRAS G12V [1] = target: T1, KRAS G12V (Homo sapiens (Human), UniProt P01116, G12V); experiment: SPR binding affinity and kinetics, GDP-loaded KRAS G12V; settings: GDP loaded protein, geomean
Source text: (§1) No additional regeneration was used.
(§2) Compound dissociation was monitored for at least 3600 seconds. […] No additional regeneration was used.
(§3) The adequateness of the fit was judged by c2 values and the randomness of residue distribution.

HRAS Wild Type = HRAS Wild Type (Homo sapiens (Human), UniProt P01112); experiment: SPR binding affinity and kinetics, GTPγS-loaded HRAS Wild Type; settings: GTPγS loaded protein, geomean
Method in brief: (§4)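 No additional regeneration is used in these SPR runs, and compound off-rate monitoring lasts at least 3600 seconds.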

KRAS G12V [2] = target: T1, KRAS G12V; experiment: SPR binding affinity and kinetics, GTPγS-loaded KRAS G12V; settings: GTPγS loaded protein, geomean
Method in brief: as §4

[3] = test system: H358 (non-small cell lung cancer cell line); experiment: KRAS Cell Titer Glo (CTG) cell proliferation assay, H358; format: cell-based; settings: Homo sapiens, NCI-H358, 168 h; H358 cells, 7-day CTG, geomean IC50
Method in brief: (§5)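 Compounds pre-dispensed in 0.1% DMSO before seeding H358 (300 cells/well), SW620 (750) or PANC08.13 (600); 7-day exposure at 37 °C, 5% CO2. Viability by CellTiter-Glo luminescence after 15 min at room temperature. Percent effect normalised to DMSO (0%) and 1 uM trametinib (100%); geomean IC50.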

KRAS G12C [4] = target: T2, KRAS G12C (Homo sapiens (Human), UniProt P01116, G12C); experiment: SPR binding affinity and kinetics, GTPγS-loaded KRAS G12C; settings: GTPγS loaded protein, geomean
Method in brief: as §4

KRAS G12D [5] = target: T3, KRAS G12D (Homo sapiens (Human), UniProt P01116, G12D); experiment: SPR binding affinity and kinetics, GTPγS-loaded KRAS G12D; settings: GTPγS loaded protein, geomean
Method in brief: as §4

[6] = test system: SW620 (colorectal cancer cell line); experiment: KRAS Cell Titer Glo (CTG) cell proliferation assay, SW620; format: cell-based; settings: Homo sapiens, SW-620, 168 h; SW620 cells, 7-day CTG, geomean IC50
Method in brief: as §5

KRAS G12C [7] = target: T2, KRAS G12C; experiment: SPR binding affinity and kinetics, GDP-loaded KRAS G12C; settings: GDP loaded protein, geomean
Source text: as §1, §2, §3

KRAS G12D [8] = target: T3, KRAS G12D; experiment: SPR binding affinity and kinetics, GDP-loaded KRAS G12D; settings: GDP loaded protein, geomean
Source text: as §1, §2, §3

KRAS Wild Type [9] = target: T4, KRAS Wild Type (Homo sapiens (Human), UniProt P01116); experiment: SPR binding affinity and kinetics, GTPγS-loaded KRAS Wild Type; settings: GTPγS loaded protein, geomean
Method in brief: as §4

NRAS Wild Type = NRAS Wild Type (Homo sapiens (Human), UniProt P01111); experiment: SPR binding affinity and kinetics, GTPγS-loaded NRAS Wild Type; settings: GTPγS loaded protein, geomean
Method in brief: as §4

KRAS Wild Type [10] = target: T4, KRAS Wild Type; experiment: SPR binding affinity and kinetics, GDP-loaded KRAS Wild Type; settings: GDP loaded protein, geomean
Source text: as §1, §2, §3

[11] = test system: PANC08.13 (pancreatic cancer cell line); experiment: KRAS Cell Titer Glo (CTG) cell proliferation assay, PANC08.13; format: cell-based; settings: Homo sapiens, PANC-08-13, 168 h; PANC08.13 cells, 7-day CTG, geomean IC50
Method in brief: as §5

T3 sequence (P01116 other isoform, or with tags, fused parts or gaps G12D): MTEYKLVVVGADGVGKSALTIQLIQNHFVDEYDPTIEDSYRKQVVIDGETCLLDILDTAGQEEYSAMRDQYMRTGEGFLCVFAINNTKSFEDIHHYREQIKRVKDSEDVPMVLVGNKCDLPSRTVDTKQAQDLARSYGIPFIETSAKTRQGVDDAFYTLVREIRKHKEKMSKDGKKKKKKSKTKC
T4 sequence (P01116 other isoform, or with tags, fused parts or gaps): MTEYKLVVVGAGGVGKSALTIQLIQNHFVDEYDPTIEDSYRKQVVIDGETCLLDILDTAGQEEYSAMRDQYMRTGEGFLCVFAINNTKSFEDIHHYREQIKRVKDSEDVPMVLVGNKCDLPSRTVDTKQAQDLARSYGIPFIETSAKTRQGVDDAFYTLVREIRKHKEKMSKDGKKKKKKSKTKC
T2 sequence (P01116 other isoform, or with tags, fused parts or gaps G12C): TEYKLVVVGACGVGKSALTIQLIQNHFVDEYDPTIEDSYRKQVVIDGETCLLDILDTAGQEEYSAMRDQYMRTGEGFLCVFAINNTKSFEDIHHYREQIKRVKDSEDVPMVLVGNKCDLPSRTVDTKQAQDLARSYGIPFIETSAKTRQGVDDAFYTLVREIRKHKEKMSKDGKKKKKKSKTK
T1 sequence (P01116 other isoform, or with tags, fused parts or gaps G12V): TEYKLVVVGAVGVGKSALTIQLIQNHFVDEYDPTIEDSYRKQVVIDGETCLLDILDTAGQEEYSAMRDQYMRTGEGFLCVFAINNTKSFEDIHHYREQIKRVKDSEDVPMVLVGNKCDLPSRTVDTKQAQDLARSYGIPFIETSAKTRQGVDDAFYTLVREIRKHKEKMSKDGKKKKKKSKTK
Chain of HRAS Wild Type (P01112 2-184): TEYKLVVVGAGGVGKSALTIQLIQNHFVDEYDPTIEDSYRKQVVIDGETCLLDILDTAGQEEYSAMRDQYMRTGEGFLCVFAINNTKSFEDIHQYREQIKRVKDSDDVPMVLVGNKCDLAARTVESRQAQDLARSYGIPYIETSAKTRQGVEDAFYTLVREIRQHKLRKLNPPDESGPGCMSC
Chain of NRAS Wild Type (P01111 2-185): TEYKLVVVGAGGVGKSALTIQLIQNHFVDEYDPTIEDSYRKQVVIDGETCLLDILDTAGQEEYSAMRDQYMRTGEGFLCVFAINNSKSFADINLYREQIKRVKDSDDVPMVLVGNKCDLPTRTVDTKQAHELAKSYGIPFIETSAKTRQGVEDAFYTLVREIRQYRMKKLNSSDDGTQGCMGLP

Row | Kd (KRAS G12V [1]) | Kd (HRAS Wild Type) | Kd (KRAS G12V [2]) | IC50 [3] | Kd (KRAS G12C [4]) | Kd (KRAS G12D [5]) | IC50 [6] | Kd (KRAS G12C [7]) | Kd (KRAS G12D [8]) | Kd (KRAS Wild Type [9]) | Kd (NRAS Wild Type) | Kd (KRAS Wild Type [10]) | IC50 [11] | SMILES
1 | 0.105 nM | > 10000 nM | 8 nM | 73 nM | 12 nM | 10 nM | 83 nM | 0.031 nM | 0.048 nM | 14 nM | > 10000 nM | 0.038 nM | 7 nM | Fc1c(-c2c(C3CC3)c(Cl)cc3[nH]ncc23)nc2c3c(nc(OC[C@@]45CCCN4C[C@H](F)C5)nc13)N1CCCOC[C@H]1CO2 [Example 1, (8aS)-5-(6-chloro-5-cyclopropyl-1H-indazol-4-yl)-4-fluoro-2-{[(2R,7aS)-2-fluorotetrahydro-1H-pyrrolizin-7a(5H)-yl]methoxy}-8a,9,12,13-tetrahydro-8H,11H-7,10-dioxa-1,3,6,13a-tetraazanaphtho[1,8-ab]heptalene]
2 | 0.144 nM | > 10000 nM | 4 nM | 10 nM | 5 nM | 1 nM | 14 nM | 0.019 nM | 0.041 nM | 5 nM | > 10000 nM | 0.004 nM | < 2 nM | C=C1CN2CCC[C@@]2(COc2nc3c4c(nc(-c5c(C6CC6)c(Cl)cc6[nH]ncc56)c(F)c4n2)OC[C@@H]2COCCCN32)C1 [Example 2, (8aS)-5-(6-chloro-5-cyclopropyl-1H-indazol-4-yl)-4-fluoro-2-{[(7aS)-2-methylidenetetrahydro-1H-pyrrolizin-7a(5H)-yl]methoxy}-8a,9,12,13-tetrahydro-8H,11H-7,10-dioxa-1,3,6,13a-tetraazanaphtho[1,8-ab]heptalene]
3 | 1.23 nM |  | 639 nM | 847 nM | 635 nM | 467 nM | 1320 nM | 0.894 nM | 0.956 nM | 546 nM |  | 2.51 nM | 404 nM | C=C1CN2CCC[C@@]2(COc2nc3c4c(nc(-c5c(Cl)ccc6[nH]ncc56)c(F)c4n2)OC[C@@H]2COCCCN32)C1 [Example 6, (8aS)-5-(5-chloro-1H-indazol-4-yl)-4-fluoro-2-{[(7aS)-2-methylidenetetrahydro-1H-pyrrolizin-7a(5H)-yl]methoxy}-8a,9,12,13-tetrahydro-8H,11H-7,10-dioxa-1,3,6,13a-tetraazanaphtho[1,8-ab]heptalene]
4 | 3.9 nM |  | 2820 nM | 4540 nM | 3230 nM | 2550 nM | 9530 nM | 1.81 nM | 2.07 nM | 2880 nM |  | 8.03 nM | 475 nM | C=C1CN2CCC[C@@]2(COc2nc3c4c(nc(-c5c(C(F)F)ccc6[nH]ncc56)c(F)c4n2)OC[C@@H]2COCCCN32)C1 [Example 10, (8aS)-5-[5-(difluoromethyl)-1H-indazol-4-yl]-4-fluoro-2-{[(7aS)-2-methylidenetetrahydro-1H-pyrrolizin-7a(5H)-yl]methoxy}-8a,9,12,13-tetrahydro-8H,11H-7,10-dioxa-1,3,6,13a-tetraazanaphtho[1,8-ab]heptalene]
5 | 0.067 nM |  | 29 nM | 136 nM | 39 nM | 19 nM | 315 nM | 0.051 nM | 0.024 nM | 40 nM |  | 0.091 nM | 21 nM | C=C1CN2CCC[C@@]2(COc2nc3c4c(nc(-c5c(Cl)c(Cl)cc6[nH]ncc56)c(F)c4n2)OC[C@@H]2COCCCN32)C1 [Example 11, (8aS)-5-(5,6-dichloro-1H-indazol-4-yl)-4-fluoro-2-{[(7aS)-2-methylidenetetrahydro-1H-pyrrolizin-7a(5H)-yl]methoxy}-8a,9,12,13-tetrahydro-8H,11H-7,10-dioxa-1,3,6,13a-tetraazanaphtho[1,8-ab]heptalene]
6 | 0.106 nM |  | 62 nM | 211 nM | 84 nM | 42 nM | 463 nM | 0.122 nM | 0.116 nM | 95 nM |  | 0.257 nM | 35 nM | C=C1CN2CCC[C@@]2(COc2nc3c4c(nc(-c5c(C(F)(F)F)ccc6[nH]ncc56)c(F)c4n2)OC[C@@H]2COCCCN32)C1 [Example 12, (8aS)-4-fluoro-2-{[(7aS)-2-methylidenetetrahydro-1H-pyrrolizin-7a(5H)-yl]methoxy}-5-[5-(trifluoromethyl)-1H-indazol-4-yl]-8a,9,12,13-tetrahydro-8H,11H-7,10-dioxa-1,3,6,13a-tetraazanaphtho[1,8-ab]heptalene]
7 | 0.072 nM |  | 3 nM | 26 nM | 4 nM | 1 nM | 70 nM | 0.017 nM | 0.106 nM | 5 nM |  | < 0.001 nM | 7 nM | C=C1CN2CCC[C@@]2(COc2nc3c4c(nc(-c5c(C(F)(F)F)c(Cl)cc6[nH]ncc56)c(F)c4n2)OC[C@@H]2COCCCN32)C1 [Example 13, (8aS)-5-[6-chloro-5-(trifluoromethyl)-1H-indazol-4-yl]-4-fluoro-2-{[(7aS)-2-methylidenetetrahydro-1H-pyrrolizin-7a(5H)-yl]methoxy}-8a,9,12,13-tetrahydro-8H,11H-7,10-dioxa-1,3,6,13a-tetraazanaphtho[1,8-ab]heptalene]

From patent US20250034173A1, “PYRIDO[4,3-D]PYRIMIDINE COMPOUNDS” (PFIZER INC., priority 2023, published 2025)
